The nature of the data set: Log P determination by HPLC on a reversed-phase column (EEC Directive 79/831, Annex V.A8). In kind it is physicochemical. The settings on record: reversed-phase HPLC column (C 18); pH 2.3. How it is done:
The determination of the Log P values occurred according to EEC Directive 79/831, Annex V.A8 using HPLC (High Performance Liquid Chromatography) on a reversed-phase column (C 18). Temperature: 43° C. Eluents for determination in the acidic range (pH 2.3): 0.1% aqueous phosphoric acid, acetonitrile; linear gradient of 10% acetonitrile to 90% acetonitrile. Calibration took place using unbranched alkane-2-ones (with 3 to 16 carbon atoms) with known Log P values (the Log P values were determined on the basis of the retention times by way of linear interpolation between two consecutive alkanones).

In the case of `Cc1ccc(-c2cc(C(F)(F)F)ccc2N)cc1` [4′-methyl-5-(trifluoromethyl)biphenyl-2-amine], the chromatographic logP was determined as 3.98.

As for `Cc1ccc(-c2cc(C(F)(F)F)ccc2NC(=O)c2sc(C)nc2C(F)(F)F)cc1` [Compound 1.15, 2-methyl-N-[4′-methyl-5-(trifluoromethyl)biphenyl-2-yl]-4-(trifluoromethyl)-1,3-thiazole-5-carboxamide], the chromatographic logP is 4.48.

The values are drawn from US20090105316A1, “Biphenyl Thiazole Carboxamides” (Bayer CropScience AG, priority 2004, published 2009).
